Source: patent US9102591B2, “Benzamides” (H. Lundbeck A/S, priority 2012, dated 2015)

Target: P2X7 receptor (Homo sapiens (Human), UniProt Q99572)
Experiment: P2X7 FLIPR assay (BzATP-stimulated calcium fluorescence, antagonist IC50)
Assay type: cell-based
Procedure: This example illustrates representative assays for use in evaluating the test compounds for antagonist activity. Compounds of the present invention were tested in vitro for their ability to act as antagonists to the P2X7receptor. […]
Cells were plated to cell density of approximately 15,000 cells/well in 384-well assay plates (50 μl/well) with 1.5% low serum media (DMEM, 1.5% FBS, 1% L-glut (2 mM), 10 mM HUES, 1% P/S). Cells were plated 24 hours prior to assay. Cells expressing human, rat or mouse P2X7 receptor were assayed in the following manner.
Fluo-4 NW dye mix (Molecular Probes, Inc., Eugene, Oreg., USA) was prepared in buffer (see manufacturer's instructions). Cell plates were removed from the 37° C. incubator, the media discarded and then 30 μL of dye was added to each well. Plates were placed in the 37° C., non-CO2 incubator for 30 minutes and then room temperature for 30 minutes.
Compound mixtures (A) were added to assay plates containing cells and placed at room temperature for 30 minutes, then BzATP (B) was added. Fluorescence was read using the Tetra FLIPR® (Molecular Devices, Inc., Sunnyvale, Calif., USA) and IC50 values were calculated by standard methods to determine antagonist activity.

P2X7 receptor, sequence (Q99572 whole entry): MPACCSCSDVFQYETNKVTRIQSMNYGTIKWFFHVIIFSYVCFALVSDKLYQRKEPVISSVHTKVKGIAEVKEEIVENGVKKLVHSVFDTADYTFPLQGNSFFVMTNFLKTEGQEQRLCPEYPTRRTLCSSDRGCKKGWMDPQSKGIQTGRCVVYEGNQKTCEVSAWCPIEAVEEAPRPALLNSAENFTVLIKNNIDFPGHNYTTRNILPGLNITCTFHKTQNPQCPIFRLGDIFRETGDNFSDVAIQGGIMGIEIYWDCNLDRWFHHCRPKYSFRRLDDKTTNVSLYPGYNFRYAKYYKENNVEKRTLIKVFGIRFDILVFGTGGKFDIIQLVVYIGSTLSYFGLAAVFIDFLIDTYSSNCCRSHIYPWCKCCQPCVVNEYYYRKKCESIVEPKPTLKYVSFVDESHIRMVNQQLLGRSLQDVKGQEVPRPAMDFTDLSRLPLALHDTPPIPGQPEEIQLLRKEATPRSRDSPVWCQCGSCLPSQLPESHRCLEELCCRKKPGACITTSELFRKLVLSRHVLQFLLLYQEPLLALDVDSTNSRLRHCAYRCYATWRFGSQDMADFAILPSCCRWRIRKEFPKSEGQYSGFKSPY

| SMILES | IC50 |
| --- | --- |
| O=C(NCC(CC1CC1)c1ccc(C(F)(F)F)nc1)c1cccc(C(F)(F)F)c1Cl (single isomer, unassigned; (-)) [(−)2-chloro-N-[3-cyclopropyl-2-[6-(trifluoromethyl)-3-pyridy] [(−)2-chloro-N-[3-cyclopropyl-2-[6-(trifluoromethyl)-3-pyridyl]propyl]-3-(trifluoromethyl)benzamide] | 110 nM |
| O=C(NCC(CC1CC1)c1ccc(C(F)(F)F)nc1)c1ccc(F)cc1Cl (stereo not drawn) [2-chloro-N-(3-cyclopropyl-2-(6-(trifluoromethyl)pyridin-3-yl)propyl)-4-fluorobenzamide] | 310 nM |
| O=C(NCC(CC1CC1)c1cnc(C(F)(F)F)nc1)c1c(Cl)cccc1Cl (stereo not drawn) [2,6-dichloro-N-(3-cyclopropyl-2-(2-(trifluoromethyl)pyrimidi] [2,6-dichloro-N-(3-cyclopropyl-2-(2-(trifluoromethyl)pyrimidin-5-yl)propyl)benzamide] | 5.1 nM |
| O=C(NCC(c1ccccc1)c1ccc(C(F)(F)F)nc1)c1c(Cl)cccc1Cl (single isomer, unassigned; (+)) [(+)2,6-dichloro-N-[2-phenyl-2-[6-(trifluoromethyl)-3-pyridyl] [(+)2,6-dichloro-N-[2-phenyl-2-[6-(trifluoromethyl)-3-pyridyl]ethyl]benzamide] | 12 nM |
| O=C(NCC(CC1CC1)c1cnc(C(F)(F)F)nc1)c1c(Cl)cccc1Cl (single isomer, unassigned; (-)) [(−)2,6-dichloro-N-[3-cyclopropyl-2-[2-(trifluoromethyl)pyrim] [(−)2,6-dichloro-N-[3-cyclopropyl-2-[2-(trifluoromethyl)pyrimidin-5-yl]propyl]benzamide] | 0.82 nM |
| O=C(NCC(CC1CC1)c1ccc(C(F)(F)F)nc1)c1cccc(C(F)(F)F)c1Cl (single isomer, unassigned; (+)) [(+)2-chloro-N-[3-cyclopropyl-2-[6-(trifluoromethyl)-3-pyridy] [(+)2-chloro-N-[3-cyclopropyl-2-[6-(trifluoromethyl)-3-pyridyl]propyl]-3-(trifluoromethyl)benzamide] | 1100 nM |
| O=C(NCC(CC1(C(F)(F)F)CC1)c1ccc(C(F)(F)F)nc1)c1ccccc1F (stereo not drawn) [2-fluoro-N-[3-[1-(trifluoromethyl)cyclopropyl]-2-[6-(trifluoromethyl)-3-pyridyl]propyl]benzamide] | 430 nM |
| O=C(NCC(c1ccccc1)c1ccc(C(F)(F)F)nc1)c1c(Cl)cccc1Cl (single isomer, unassigned; (-)) [(−)2,6-dichloro-N-[2-phenyl-2-[6-(trifluoromethyl)-3-pyridyl] [(−)2,6-dichloro-N-[2-phenyl-2-[6-(trifluoromethyl)-3-pyridyl]ethyl]benzamide] | 18 nM |
| O=C(NCC(c1ccccc1)c1ccc(C(F)(F)F)nc1)c1ccc(Cl)cc1Cl (stereo not drawn) [2,4-dichloro-N-(2-phenyl-2-(6-(trifluoromethyl)pyridin-3-yl)ethyl)benzamide] | 25 nM |
| O=C(NCC(c1ccc(F)cc1)c1ccc(C(F)(F)F)nc1)c1ccccc1Cl (single isomer, unassigned; (+)) [(+)2-chloro-N-[2-(4-fluorophenyl)-2-[6-(trifluoromethyl)-3-p] [(+)2-chloro-N-[2-(4-fluorophenyl)-2-[6-(trifluoromethyl)-3-pyridyl]ethyl]benzamide] | 2.2 nM |
| Cc1ncc(C2(C(C)NC(=O)c3c(F)cccc3Cl)CCC(F)(F)CC2)cn1 (stereo not drawn) [2-chloro-N-[1-[4,4-difluoro-1-(2-methylpyrimidin-5-yl)cyclohexyl]ethyl]-6-fluoro-benzamide] | 1400 nM |

Other lines, results leading:

| IC50 | SMILES |
| --- | --- |
| 5.5 nM | O=C(NCC(CC1CC1)c1cncc(Cl)c1)c1cccc(Cl)c1Cl (stereo not drawn) [2,3-dichloro-N-(2-(5-chloropyridin-3-yl)-3-cyclopropylpropyl)benzamide] |
| 200 nM | O=C(NCC(c1ccncc1)c1ccc(C(F)(F)F)nc1)c1cccc(Cl)c1Cl (stereo not drawn) [2,3-dichloro-N-[2-(4-pyridyl)-2-[6-(trifluoromethyl)-3-pyridyl]ethyl]benzamide] |
| 58 nM | Cc1ncc(C(CNC(=O)c2cccc(Cl)c2Cl)C2CCOCC2)cn1 (single isomer, unassigned; (-)) [(−)2,3-dichloro-N-[2-(2-methylpyrimidin-5-yl)-2-tetrahydropy] [(−)2,3-dichloro-N-[2-(2-methylpyrimidin-5-yl)-2-tetrahydropyran-4-yl-ethyl]benzamide] |
| 100 nM | COc1cccc(C(=O)NCC2(c3ccc(F)nc3)CCC(F)(F)CC2)c1F |
| 9.1 nM | Cc1ccc(F)cc1C(=O)NCC1(c2ccc(C(F)(F)F)nc2)CCC(F)(F)CC1 [N-((4,4-difluoro-1-(6-(trifluoromethyl)pyridin-3-yl)cyclohexyl)methyl)-5-fluoro-2-methylbenzamide] |
| 890 nM | O=C(NCC1(c2ccc(Cl)cc2)CCOCC1)c1cccc(Cl)c1F [3-Chloro-N-[4-(4-chloro-phenyl)-tetrahydro-pyran-4-ylmethyl]-2-fluoro-benzamide] |
| 28 nM | Cc1ncc(C(CNC(=O)c2cccc(Cl)c2Cl)C2CCOCC2)cn1 (single isomer, unassigned; (+)) [(+)2,3-dichloro-N-[2-(2-methylpyrimidin-5-yl)-2-tetrahydropy] [(+)2,3-dichloro-N-[2-(2-methylpyrimidin-5-yl)-2-tetrahydropyran-4-yl-ethyl]benzamide] |
| 15 nM | O=C(NCC(CC1(C(F)(F)F)CC1)c1ccc(C2CC2)nc1)c1cccc(Cl)c1Cl (stereo not drawn) [2,3-dichloro-N-[2-(6-cyclopropyl-3-pyridyl)-3-[1-(trifluoromethyl)cyclopropyl]propyl]benzamide] |
| 3400 nM | Cc1ccc(Cl)c(C(=O)NCC2(c3ccc(C)nc3)CCOCC2)c1 [2-Chloro-5-methyl-N-[4-(6-methyl-pyridin-3-yl)-tetrahydro-pyran-4-ylmethyl]-benzamide] |
| 5.7 nM | O=C(NCC(c1cnc(C(F)(F)F)nc1)C1CCC(F)(F)CC1)c1cccc(Cl)c1Cl (single isomer, unassigned; (+)) [(+)2,3-dichloro-N-[2-(4,4-difluorocyclohexyl)-2-[2-(trifluor] [(+)2,3-dichloro-N-[2-(4,4-difluorocyclohexyl)-2-[2-(trifluoromethyl)pyrimidin-5-yl]ethyl]benzamide] |
| 1800 nM | CS(=O)(=O)c1ccc(C(=O)NCC2(c3ccc(C(F)(F)F)nc3)CCC(F)(F)CC2)c(Cl)c1 [2-chloro-N-((4,4-difluoro-1-(6-(trifluoromethyl)pyridin-3-yl)cyclohexyl)methyl)-4-(methylsulfonyl)benzamide] |
| 150 nM | Cc1ncc(C(CNC(=O)c2c(F)cccc2Cl)C2CCC(F)(F)CC2)cn1 (stereo not drawn) [2-chloro-N-[2-(4,4-difluorocyclohexyl)-2-(2-methylpyrimidin-5-yl)ethyl]-6-fluoro-benzamide] |
| 64 nM | O=C(NCC(c1cnc(C(F)(F)F)nc1)C1CCOCC1)c1cccc(F)c1Cl (single isomer, unassigned; (-)) [(−)2-chloro-3-fluoro-N-[2-tetrahydropyran-4-yl-2-[2-(trifluo] [(−)2-chloro-3-fluoro-N-[2-tetrahydropyran-4-yl-2-[2-(trifluoromethyl)pyrimidin-5-yl]ethyl]benzamide] |
